Measured values taken from patent US20260108614A1, “IMMOBILIZED ENDOGLYCOSIDASE FUSION PROTEIN AND USE THEREOF” (GENEQUANTUM HEALTHCARE (SUZHOU) CO., LTD., priority 2022, published 2026).
Like-named read-outs stand apart in the source and are kept apart here. Square brackets hold non-standard residues; d marks the D form. Peptide text beside a SMILES is read from it. * marks the point of attachment. Dolaproine = CO[C@@H]([C@@H]1CCCN1)[C@@H](C)C(=O)O; Dil = CC[C@H](C)[C@H](NC)[C@@H](CC(=O)O)OC; X1 = C[C@@H](N*)[C@@H](O)c1ccccc1; NMeV = CN[C@H](C(=O)O)C(C)C

Columns and labels:
[1] = tested on: ErbB2/Her2-positive human breast cancer cells BT-474; assay: Tumor cell proliferation inhibition (CellTiter Glo), BT-474; type: cell-based; settings: Table 3; incubation 72 to 120 h; "—" = undetected; read-out: Inhibitory effect on proliferation of Tumor Cells (IC50, nM), BT-474
Protocol: (§1) 1) ErbB2/Her2-positive human breast cancer cells BT-474, ErbB2/Her2-positive human gastric cancer cells NCI-N87 and ErbB2/Her2-negative human liver cancer cells HepG2 were inoculated into a 96-well cell plate at 100 μl/well (1000 to 10000 cells), and incubated overnight in a cell incubator under the conditions of 37° C., 5% CO2, and 100% humidity.
(§2) Incubation was further performed at 37° C. for 72 to 120 h.
(§3) 3) The cell plate was removed from the 37° C. cell incubator, and equilibrated for about 30 min to room temperature. 100 μl of CellTiter Glo reagent was added into each well, a shaker shook for 2 min, followed by standing in a dark place at room temperature for 10 min, and a relative light unit (RLU) was measured with an MD M4 microplate reader.

[2] = tested on: ErbB2/Her2-positive human gastric cancer cells NCI-N87; assay: Tumor cell proliferation inhibition (CellTiter Glo), NCI-N87; type: cell-based; settings: Table 3; incubation 72 to 120 h; "—" = undetected; read-out: Inhibitory effect on proliferation of Tumor Cells (IC50, nM), NCI-N87
Protocol: as §1, §2, §3

[3] = tested on: human liver cancer cells HepG2; assay: Tumor cell proliferation inhibition (CellTiter Glo), HepG2; type: cell-based; settings: "—" = undetected, read-out: Inhibitory effect on proliferation of Tumor Cells (IC50, nM), HepG2
Protocol: as §1, §2, §3
(§4) BxPC-3, FaDu, HepG2 and other human tumor cells were selected.
(§5) TROP2-positive human tumor cells such as BxPC-3 (human pancreatic cancer cell) and FaDu (human throat cancer cell), and TROP2-negative tumor cells such as HepG2 (human liver cancer cell) were selected.

[4] = tested on: BxPC-3 (human pancreatic cancer cell); assay: Tumor cell proliferation inhibition, BxPC-3; type: cell-based; settings: Table 7; TROP2-positive; "—" = undetected; read-out: Inhibitory effect on proliferation of Tumor Cells (IC50, nM), BxPC-3
Protocol: as §1, §2, §3, §4, §5

[5] = tested on: FaDu (human throat cancer cell); assay: Tumor cell proliferation inhibition, FaDu; type: cell-based; settings: Table 7; TROP2-positive; "—" = undetected; read-out: Inhibitory effect on proliferation of Tumor Cells (IC50, nM), FaDu
Protocol: as §1, §2, §3, §4, §5

[6] = tested on: ErbB2/Her2-positive cells; assay: Tumor cell proliferation inhibition, ErbB2/Her2-positive cells as a group; type: cell-based, human; settings: Example 9; BT-474 and NCI-N87
TROP2-positive cells = assay: Tumor cell proliferation inhibition, TROP2-positive cells as a group; type: cell-based, human; settings: Example 19; BxPC-3 and FaDu
Protocol: as §1, §2, §3, §4, §5

Work on `CC[C@H](C)[C@@H]([C@@H](CC(=O)N1CCC[C@H]1[C@H](OC)[C@@H](C)C(=O)N[C@H](C)[C@@H](O)c1ccccc1)OC)N(C)C(=O)[C@@H](NC(=O)[C@@H](NC)C(C)C)C(C)C` [MMAE, monomethylauristatin E, reference compound] (H-[NMeV]V[Dil][Dolaproine]-X1) yielded an IC50 [1] of 0.272 nM, an IC50 [2] of 0.248 nM and an IC50 ([3]; Table 3, ErbB2/Her2-negative cells, incubation 72 to 120 h) of 0.567 nM. The IC50 ([3]; Table 7, TROP2-negative) was 0.398 nM, the IC50 [4] was 0.388 nM and the IC50 [5] was 0.167 nM. For the same molecule, the “inhibitory effect on proliferation of the ErbB2/Her2-positive cells (in words)” value [6] was “obvious inhibitory effect” and the “inhibitory effect on proliferation of the TROP2-positive cells (in words)” value (TROP2-positive cells) was “obvious inhibitory effect”.
